The text below walks through data of PMC4594923, “Food Polyphenols Fail to Cause a Biologically Relevant Reduction of COX-2 Activity” (PLoS ONE, 2015).

Data set [1] addresses T1, ovine recombinant COX–1 (Ovis aries, UniProt P05979).
T1 sequence (P05979 25-600): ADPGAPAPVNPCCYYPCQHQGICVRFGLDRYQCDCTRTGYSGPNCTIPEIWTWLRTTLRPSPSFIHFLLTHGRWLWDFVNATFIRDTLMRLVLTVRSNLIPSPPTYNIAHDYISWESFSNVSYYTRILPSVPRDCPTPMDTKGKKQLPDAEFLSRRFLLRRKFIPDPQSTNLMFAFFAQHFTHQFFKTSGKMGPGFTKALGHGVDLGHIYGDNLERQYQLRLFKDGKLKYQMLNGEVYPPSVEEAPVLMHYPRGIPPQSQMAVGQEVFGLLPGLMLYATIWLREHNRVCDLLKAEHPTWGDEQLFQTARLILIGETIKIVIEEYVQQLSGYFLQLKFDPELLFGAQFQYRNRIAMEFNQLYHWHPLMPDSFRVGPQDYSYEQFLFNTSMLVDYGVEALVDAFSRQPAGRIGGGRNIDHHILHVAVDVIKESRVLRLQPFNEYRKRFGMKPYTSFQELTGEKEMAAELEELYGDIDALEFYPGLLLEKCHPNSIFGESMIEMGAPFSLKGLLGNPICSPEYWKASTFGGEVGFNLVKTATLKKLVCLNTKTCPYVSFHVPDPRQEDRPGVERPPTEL
In words: cell-free COX–1 enzyme assay (PGE2 formation, LC-MS). The class given is biochemical. Further details: purchased Cayman Chemicals/ Biomol, Hamburg, Germany. Particulars: for IC50 / IC50 (95% CI), COX–1 enzyme assay: calculated based on PGE2, n = 3; for IC50: read-out: IC50 (95% CI), COX–1 enzyme assay.
Procedure: (§1) The in vitro assays were performed as described [6, 16, 18] and COX metabolites were quantified by LC-MS [18].
(§2) Primary human monocytes were freshly isolated from human blood. Blood was collected from healthy human subjects after written informed consent was obtained. […] After 24 h, the supernatant was sampled for LC-MS and cells were collected for the COX–2 expression analysis by Western Blotting.
(§3) GraphPad Prism 5.0 (GraphPad Software, San Diego, USA) was used for data analysis, the fitting of dose response curves and calculation of the IC50 values. Statistical differences were determined by Dunnetts test (LPS vs. other groups).

Data set [2] concerns the target T2, COX–2 (Homo sapiens, UniProt P35354).
T2 sequence (P35354 18-604): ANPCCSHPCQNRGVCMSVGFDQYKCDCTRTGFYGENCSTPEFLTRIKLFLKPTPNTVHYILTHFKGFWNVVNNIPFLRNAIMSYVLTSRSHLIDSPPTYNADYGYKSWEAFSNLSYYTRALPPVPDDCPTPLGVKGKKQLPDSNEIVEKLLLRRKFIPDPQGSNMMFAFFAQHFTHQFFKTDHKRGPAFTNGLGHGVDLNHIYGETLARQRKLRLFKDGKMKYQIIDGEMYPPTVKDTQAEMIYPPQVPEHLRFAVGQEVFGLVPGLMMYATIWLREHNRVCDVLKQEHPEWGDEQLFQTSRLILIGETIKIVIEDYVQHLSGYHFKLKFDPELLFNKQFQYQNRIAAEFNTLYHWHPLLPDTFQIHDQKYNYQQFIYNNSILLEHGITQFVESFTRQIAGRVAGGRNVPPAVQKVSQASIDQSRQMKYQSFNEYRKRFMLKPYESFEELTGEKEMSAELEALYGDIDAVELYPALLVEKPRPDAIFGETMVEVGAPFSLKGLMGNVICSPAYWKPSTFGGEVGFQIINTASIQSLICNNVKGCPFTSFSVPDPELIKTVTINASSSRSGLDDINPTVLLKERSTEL
The data set can be described thus: cell-free COX–2 enzyme assay (PGE2 formation, LC-MS). The format is biochemical. Particulars: for IC50 / IC50 (95% CI), COX–2 enzyme assay: calculated based on PGE2, n = 3; for IC50: read-out: IC50 (95% CI), COX–2 enzyme assay.
Procedure: as §1, §2, §3

The conditions of data set [3]: cited from earlier work.
For data set [4], the system named is COX–2. The conditions noted are these: cited from earlier work.
For data set [5], the system named is COX–2 protein. Particulars: cited from earlier work.
Data set [6] concerns the target T2, COX–2. In words: PGE2 formation in LPS stimulated primary human monocytes (24 h, LC-MS). The format is cell-based. Particulars: for IC50: read-out: IC50 (95% CI), primary monocytes.
Procedure: as §1, §2, §3
The subject of data set [7] is COX–2 protein. The data set can be described thus: COX–2 expression in HCA–7 cells (Western Blot). The class given is cell-based, human. Particulars: 24 h, vs. control. (A western blot detects proteins with antibodies after separation by electrophoresis.)
Procedure: (§4) HCA–7 cells were incubated with sub-cytotoxic concentrations of the polyphenols dissolved in Tris buffered DMEM medium. Cytotoxicity of the polyphenols was evaluated by the lactate dehydrogenase leakage test (Cyto-Tox-ONE, Promega Mannheim, Germany). After 24 h the supernatant was collected for LC-MS analysis and the cells were harvested to analyze the COX–2 expression by Western Blotting.
The target of data set [8] is T2, COX–2. The data set can be described thus: PGE2 formation in HCA–7 cells (24 h, LC-MS). The class given is cell-based. The conditions noted are these: for IC50 (95% CI), HCA-7 cell line: calculated based on PGE2, n = 3, 24 h; for changes of PGE2 formation in HCA–7 cells: non-cytotoxic concentrations, 24 h.
Procedure: as §1, §4
After 24 h, the supernatant was sampled for LC-MS and cells were collected for the COX–2 expression analysis by Western Blotting.
as §3
Data set [9] deals with COX–2 protein. In words: COX–2 expression in LPS stimulated primary human monocytes (Western Blot). Particulars: 24 h, vs. control.
Procedure: as §2
[10] abbreviates: LPS stimulated, calculated based on PGE2, n = 3, 24 h.

Several values for one entry are separate records, joined by “and”; a condition that tells them apart may be missing. Identical values can stand only once. Entries after “also recorded” stand apart in the source; their conditions may differ.

The IC50 is the concentration that inhibits the measured activity by half. `O=C(O[C@@H]1Cc2c(O)cc(O)cc2O[C@@H]1c1cc(O)c(O)c(O)c1)c1cc(O)c(O)c(O)c1` [EGCG, epigallocatechingallat]: in data set [1], the “effect on COX–1 dependent PGE2 formation, cell-free enzyme assay” value is listed as “dose-dependently decreased; also recorded: inhibited” and the IC50 is 17 µM. Moreover, in data set [2], the “effect on COX–2 dependent PGE2 formation, cell-free enzyme assay” value was “dose-dependently decreased; also recorded: inhibited” and the IC50 was 32 µM. In data set [3] (in vivo), the maximal plasma concentrations is 0.13 to 0.33 µM. For the same compound, the “PGE2 formation / levels, RAW 264.7 cells” value in data set [4] is “lack of effect”. In data set [5], the “COX–2 (protein) levels, RAW 264.7 cells” value is “slight increase”. Also, the “IC50 (95% CI), primary monocytes” value in data set [6] (setting [10]) was “no effect(up to 10 μM)”. In addition, the “COX-2 Expression, HCA-7 cell line” value in data set [7] is “no effect(up to 10 μM)”. For the same compound, in data set [8], the “IC50 (95% CI), HCA-7 cell line” value is “no effect (up to 10 μM)” and the “changes of PGE2 formation in HCA–7 cells” value is “no or only slight”. The “COX-2 Expression, primary monocytes” value in data set [9] was “Decreased COX–2 protein levels and 10 μM:COX–2 ↓”.
As a reminder, the inhibition is the percentage by which the read-out fell short of the control. As to `O=C1C[C@@H](c2ccc(O)cc2)Oc2cc(O)cc(O)c21` [Naringenin, naringenin], in [1], the “effect on COX–1 dependent PGE2 formation, cell-free enzyme assay” value is on record as “no effect” and the “IC50 (95% CI), COX–1 enzyme assay” value was “no effect (up to 100 μM)”. For the same compound, in data set [2], the “effect on COX–2 dependent PGE2 formation, cell-free enzyme assay” value is reported as “no effect” and the “IC50 (95% CI), COX–2 enzyme assay” value is “no effect (up to 100 μM)”. Also, the “plasma peak level, total naringenin (free and conjugated form)” value in data set [3] (humans, ingestion of grapefruit juice (0.2 g total naringenin)) was 6 µM. Also, the “COX–2 protein levels, LPS stimulated RAW 264.7 cells” value in data set [5] is recorded as “decreased COX–2 protein levels”. Further, the IC50 in data set [6] (setting [10]) is 29 µM. Also, the “COX-2 Expression, HCA-7 cell line” value in data set [7] is recorded as 100 μM:COX–2 ↓. Also, in data set [7] (listed as naringenin), the “COX-2 Expression, HCA-7 cell line” value is listed as “decreased COX–2 expression”. The inhibition at 100 µM in [8] (HCA-7, 100 μM, read-out: inhibition, HCA-7 cell line) amounted to 53%. In addition, the “changes of PGE2 formation in HCA–7 cells” value in [8] is given as “affected”. Also, the “COX-2 Expression, primary monocytes” value in [9] is 100, 30 μM:COX–2 ↓. In addition, in data set [9] (listed as naringenin), the “COX-2 Expression, primary monocytes” value was “Decreased COX–2 protein levels”.
On to `COc1ccc(-c2cc(=O)c3c(OC)c(OC)c(OC)c(OC)c3o2)cc1OC` [Nobiletin, nobiletin], for which, in data set [1], the “effect on COX–1 dependent PGE2 formation, cell-free enzyme assay” value is “no effect” and the “IC50 (95% CI), COX–1 enzyme assay” value is “no effect (up to 100 μM)”. Moreover, in data set [2], the “effect on COX–2 dependent PGE2 formation, cell-free enzyme assay” value is “no effect” and the “IC50 (95% CI), COX–2 enzyme assay” value was “no effect (up to 100 μM)”. For the same compound, the “COX–2 protein levels, LPS stimulated RAW 264.7 cells” value in data set [5] was “decreased COX–2 protein levels”. Moreover, the IC50 in [6] (setting [10]) is 24 µM. In addition, in data set [7], the “COX-2 Expression, HCA-7 cell line” value is 100 μM:COX–2 ↓. The “COX-2 Expression, HCA-7 cell line” value in data set [7] (listed as nobiletin) is recorded as “decreased COX–2 expression”. The “changes of PGE2 formation in HCA–7 cells” value in data set [8] is given as “no or only slight; also recorded: affected”. Besides, the “inhibition, HCA-7 cell line” value in data set [8] (up to 100 μM) is given as “inhibition < 50%(up to 100 μM)”. In data set [9], the “COX-2 Expression, primary monocytes” value is “no effect(up to 100 μM)”.
On to `COc1c(O)cc(O)c2c(=O)cc(-c3ccccc3)oc12` [Wogonin, wogonin], for which, in [1], the “effect on COX–1 dependent PGE2 formation, cell-free enzyme assay” value was “no effect” and the “IC50 (95% CI), COX–1 enzyme assay” value is reported as “no effect (up to 100 μM)”. Besides, the IC50 in data set [4] (read-out: IC50, LPS stimulated murine macrophages) was 0.3 µM.
On to hopeaphenol, for which, in data set [1], the “effect on COX–1 dependent PGE2 formation, cell-free enzyme assay” value was “dose-dependently decreased; also recorded: inhibited” and the IC50 was 4 µM. Further, in [2], the “effect on COX–2 dependent PGE2 formation, cell-free enzyme assay” value is recorded as “dose-dependently decreased; also recorded: inhibited” and the IC50 is 22 µM. Besides, the “inhibition, primary monocytes” value in data set [6] (up to 1 μM) is “inhibition < 50% (up to 1 μM)”. Further, the “COX-2 Expression, HCA-7 cell line” value in [7] was “no effect (up to 1 μM)”. Besides, in [8], the “IC50 (95% CI), HCA-7 cell line” value is “no effect (up to 1 μM)” and the “changes of PGE2 formation in HCA–7 cells” value is “no or only slight”. Also, the “COX-2 Expression, primary monocytes” value in [9] is 1 μM: COX–2 ↓. In data set [9] (listed as hopeaphenol), the “COX-2 Expression, primary monocytes” value is reported as “Decreased COX–2 protein levels”.
